Assays:
Bermudagrass = experiment: Test 11 windowsill flats, postemergence; type: in vivo, Cynodon dactylon; conditions: Postemergence 32 g/ha, 0.25% X-77 surfactant, scale 0-100
Procedure: (§1) Budded citrus seedlings were planted in 30-liter plastic pots which were also seeded with sandbur, guineagrass, narrowleaf panicum, common ragweed, yellow nutsedge, purple nutsedge and bindweed. Compound I was applied preemergence and postemergence to the weeds. Treatments were sprayed to simulate the trunk-to-trunk herbicide application method used in some citrus groves. The compound was also applied postemergence to weeds grown in windowsill flats. The flats were filled with planting medium and seeded with morningglory (Ipomoea spp.). purple nutsedge (Cyperus rotundus), pigweed (Amaranthus spp.), bindweed (Convolvulus spp.), narrowleaf panicum (Panicum maximum), common ragweed (Ambrosia artemisiifolia), sandbur (Cenchrus echinatus), itchgrass (Rottboellia exaltata), johnsongrass (Sorghum halepense), guineagrass (Panicum maximum), smooth crabgrass (Digitaria ischaemum), broadleaf signalgrass (Brachiaria platyphylla), bermudagrass (Cynodon dactylon), goosegrass (Eleusine indica), large crabgrass (Digitaria sanguinalis) and yellow nutsedge (Cyperus esculentus).
(§2) The compound was formulated and sprayed with 0.25% X-77 surfactant in water. Plants were visually rated 21 and 29 days after treatment and compared with appropriate controls. Injury ratings were based on the scale of 0 to 100, where 0 indicates no effect, 20 indicates minimum effect and 100 indicates complete control. […]

Narrowleaf panicum = experiment: Test 5 sugarcane injury and weed control, postemergence; type: in vivo, Panicum maximum; conditions: scale 0-100
Procedure: (§3) Sugarcane (Saccharum spp.) cuttings which had been pre-sprouted were planted in 15-cm plastic pots. Narrowleaf panicum (Panicum maximum), large crabgrass (Digitaria sanguinalis), guineagrass (P. maximum) and itchgrass (Rottboellia exaltata) were seeded in individual 15-cm plastic pots.
(§4) The pots were treated postemergence when the plants had 3 to 4 leaves with 2 to 3 tillers with Compound I formulated in a non-phytotoxic carrier made up of acetone-humectant-water-surfactant (22:1:1:0.05 v/v). The degree of crop injury and weed control was visually rated 27 days after treatment (DAT). Plant injury ratings are based on the scale of 0 to 100 where 0 = no effect, 20 = minimal injury and 100 = complete control.

Morningglory = experiment: Test 11 windowsill flats, postemergence; type: in vivo, Ipomoea spp.; conditions: Postemergence 32 g/ha, 0.25% X-77 surfactant, scale 0-100
Procedure: as §1, §2

Tansy mustard = experiment: Test 7 postemergence; type: in vivo, Descurainia pinnata; conditions: scale 0-100
Procedure: (§5) Individual 11.4-cm plastic pots filled with planting medium were seeded with rape, wild radish (Raphanus raphanistruna). tansy mustard (Descurainia pinnata), ball mustard (Neslia paniculata), black mustard (Brassica nigra), yellow mustard, brown mustard, lentils, safflower, flax, sunflower, peanut, vetch, alfalfa, field bean, pea, violet (Viola spp), Kochia (Kochia spp), Russian thistle (Salsola spp), Matricaria spp, groundsel (Senecio spp), shepherdspurse (Capsella bursa-pastoris), nightshade (Solanum spp), sowthistle (Sonchus spp), sugar beet, wheat, "Bonanza" barley and "Morex" barley, Kentucky bluegrass (Poa pratensis), red clover (Trifolium pratense), dandelion (Taraxacum spp) and buckhorn plantain (Plantago lanceolata).
(§6) Plants were treated postemergence with the compound formulated with a non-phytotoxic carrier. Plants were visually rated 18 days after treatment (DAT). Response ratings were based on the scale of 0 to 100 where 0 = no effect, 20 = minimal injury and 100 = complete control.

Wild mustard = experiment: Test 7 postemergence; type: in vivo; conditions: scale 0-100
Pigweed = experiment: Test 11 windowsill flats, postemergence; type: in vivo, Amaranthus spp.; conditions: Postemergence 32 g/ha, 0.25% X-77 surfactant, scale 0-100
Procedure: as §1, §2

Sugarcane = experiment: Test 5 sugarcane injury and weed control, postemergence; type: in vivo, Saccharum spp.; conditions: scale 0-100
Procedure: as §3, §4

Dandelion = experiment: Test 7 postemergence; type: in vivo, Taraxacum spp; conditions: scale 0-100
Procedure: as §5, §6

Yellow nutsedge [1] = experiment: Test 11 citrus pots, preemergence to the weeds; type: in vivo, Cyperus esculentus; conditions: Preemergence 32 g/ha; 0.25% X-77 surfactant; scale 0-100
Procedure: as §1, §2

Itchgrass [2] = experiment: Test 11 windowsill flats, postemergence; type: in vivo, Rottboellia exaltata; conditions: Postemergence 32 g/ha, 0.25% X-77 surfactant, scale 0-100
Procedure: as §1, §2

Purple nutsedge [3] = experiment: Test 11 windowsill flats, postemergence; type: in vivo, Cyperus rotundus; conditions: Postemergence 32 g/ha, 0.25% X-77 surfactant, scale 0-100
Procedure: as §1, §2

Itchgrass [4] = experiment: Test 5 sugarcane injury and weed control, postemergence; type: in vivo, Rottboellia exaltata; conditions: scale 0-100
Procedure: as §3, §4

Elephantgrass = experiment: Test 9 postemergence; type: in vivo, Pennisetum purpureum; conditions: scale 0-100
Procedure: (§7) Plastic windowsill pots containing planting medium were seeded with bahiagrass, bindweed (Convolvulus spp), guinea grass (Panicum maximum), large crabgrass (Digitaria sanguinalis) and pigweed (Amaranthus spp). Individual 15-cm plastic pots contained sandbur (Cenchrus echinatus), Mikania cordata, Boston fern (Nephrolepis exalata), quackgrass (Agropyron repens), elephantgrass (Pennisetum purpureum) and sowthistle (Sonchus spp) plants.
(§8) Plants were treated postemergence with Compound I formulated in a non-phytotoxic solvent. Plants were visually rated 22 days after treatment (DAT). Injury and weed control ratings were based on the scale of 0 to 100 where 0 = no effect, 20 = minimal control and 100 = complete control.

Sandbur = experiment: Test 11 citrus pots, postemergence to the weeds; type: in vivo, Cenchrus echinatus; conditions: Postemergence 32 g/ha, 0.25% X-77 surfactant, scale 0-100
Procedure: as §1, §2

Yellow nutsedge [5] = experiment: Test 11 windowsill flats, postemergence; type: in vivo, Cyperus esculentus; conditions: Postemergence 32 g/ha, 0.25% X-77 surfactant, scale 0-100
Procedure: as §1, §2

Black mustard = experiment: Test 7 postemergence; type: in vivo, Brassica nigra; conditions: scale 0-100
Procedure: as §5, §6

Mikanis cordata = experiment: Test 9 postemergence; type: in vivo, Mikania cordata; conditions: scale 0-100
Procedure: as §7, §8

Chickweed = experiment: Test 10 postemergence safety to crops and weed control; type: in vivo, Stellaria media; conditions: 16 g/ha, scale 0-100
Procedure: The object of these tests was to evaluate the compound of this invention for postemergence safety to crops and weed control. Seedling and budded Macedine grapes were grown in 11.4-cm pots. Flax, green foxtail (Setaria viridis), "Morex" barley, wild oats (Avena fatua), "Era" wheat, annual ryegrass (Lolium multiflorum), wild radish (Raphanus raphanistrum), rape, sunflower, chickweed (Stellaria media) and wild buckwheat (Polygonum convolvulus) were seeded in windowsill pots.
The plants were sprayed postemergence with Compound I in a non-phytotoxic solvent. Plants were visually rated 15 and 27 days after treatment (DAT). Injury and weed control ratings were based on the scale of 0 to 100 where 0 = no effect, 20 minimal control and 100 = complete control.

Purple nutsedge [6] = experiment: Test 11 citrus pots, postemergence to the weeds; type: in vivo, Cyperus rotundus; conditions: Postemergence 32 g/ha, 0.25% X-77 surfactant, scale 0-100
Procedure: as §1, §2

Yellow nutsedge [7] = experiment: Test 11 citrus pots, postemergence to the weeds; type: in vivo, Cyperus esculentus; conditions: Postemergence 32 g/ha, 0.25% X-77 surfactant, scale 0-100
Procedure: as §1, §2

Structure (SMILES): COC(=O)c1cccnc1S(=O)(=O)NC(=O)Nc1nc(OC)cc(OC)n1 [Compound I, 2-[[(4,6-dimethoxypyrimidin-2-yl)aminocarbonyl]aminosulfonyl]-3-pyridinecarboxylic acid, methyl ester]
- Injury ratings (Bermudagrass): 20
- Plant Injury Rating 27 DAT (Narrowleaf panicum; 8 g/ha): 70
- Plant Injury Rating 27 DAT (Narrowleaf panicum; 16 g/ha): 100
- Plant Injury Rating 27 DAT (Narrowleaf panicum; 32 g/ha): 100
- Plant Injury Rating 27 DAT (Narrowleaf panicum; 64 g/ha): 100
- Injury ratings (Morningglory): 90
- Plant Injury Rating 18 DAT (Tansy mustard; 16 g/ha): 100
- Plant Injury Rating 18 DAT (Tansy mustard; 32 g/ha): 100
- Plant Injury Rating 18 DAT (Wild mustard; 16 g/ha): 100
- Plant Injury Rating 18 DAT (Wild mustard; 32 g/ha): 100
- Injury ratings (Pigweed): 100
- Plant Injury Rating 27 DAT (Sugarcane; 8 g/ha): 10
- Plant Injury Rating 27 DAT (Sugarcane; 16 g/ha): 20
- Plant Injury Rating 27 DAT (Sugarcane; 32 g/ha): 20
- Plant Injury Rating 27 DAT (Sugarcane; 64 g/ha): 30
- Plant Injury Rating 18 DAT (Dandelion; 16 g/ha): 100
- Plant Injury Rating 18 DAT (Dandelion; 32 g/ha): 100
- Injury ratings (Yellow nutsedge [1]): 100
- Injury ratings (Itchgrass [2]): 100
- Injury ratings (Purple nutsedge [3]): 100
- Plant Injury Rating 27 DAT (Itchgrass [4]; 8 g/ha): 80
- Plant Injury Rating 27 DAT (Itchgrass [4]; 16 g/ha): 80
- Plant Injury Rating 27 DAT (Itchgrass [4]; 32 g/ha): 100
- Plant Injury Rating 27 DAT (Itchgrass [4]; 64 g/ha): 100
- Plant Injury Rating 22 DAT (Elephantgrass; 8 g/ha): 0
- Plant Injury Rating 22 DAT (Elephantgrass; 16 g/ha): 50
- Plant Injury Rating 22 DAT (Elephantgrass; 32 g/ha): 70
- Injury ratings (Sandbur): 100
- Injury ratings (Yellow nutsedge [5]): 80
- Plant Injury Rating 18 DAT (Black mustard; 16 g/ha): 100
- Plant Injury Rating 18 DAT (Black mustard; 32 g/ha): 100
- Plant Injury Rating 22 DAT (Mikanis cordata; 8 g/ha): 0
- Plant Injury Rating 22 DAT (Mikanis cordata; 16 g/ha): 0
- Plant Injury Rating 22 DAT (Mikanis cordata; 32 g/ha): 30
- Plant Injury Rating 15 DAT (Chickweed): 100
- Injury ratings (Purple nutsedge [6]): 90
- Injury ratings (Yellow nutsedge [7]): 100

From EP0314302A2, “Herbicidal o-carbomethoxy-sulfonylureas” (E.I. DU PONT DE NEMOURS AND COMPANY, priority 1987, dated 1989)
